Experimental data from patent publication US20210045385A1, “PYRIDAZINONE-SUBSTITUTED KETOXIMES AS HERBICIDES” (FMC Corporation, priority 2018, published 2021).

What was measured:
Type in all cases: in vivo
[1] = tested on: foxtail, giant (giant foxtail, Setaria faberii); test: Test A preemergence, visual plant response rating; details: for Foxtail, Giant plant response rating: 125 g ai/ha, preemergence, 0 to 100 scale, 0 no effect, 100 complete control; for Foxtail, Giant plant response rating (0 to 100 scale): approx. 10 days
In short: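 Compared with untreated controls, treated plants received a visual injury score on a 0–100 scale around 10 days after application. The compound, in a non-phytotoxic solvent with surfactant, was given as a preemergence soil spray or postemergence at the one- to two-leaf stage.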

[2] = tested on: Italian ryegrass (Lolium multiflorum); test: Test A preemergence, visual plant response rating; details: for Ryegrass, Italian plant response rating: 125 g ai/ha, preemergence, 0 to 100 scale, 0 no effect, 100 complete control; for Ryegrass, Italian plant response rating (0 to 100 scale): approx. 10 days
In short: (§1)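 Preemergence: seeds in loam/sand blend given directed soil spray of compound in non-phytotoxic solvent with surfactant. Postemergence: plants 2–10 cm, one- to two-leaf stage, sprayed with same formulation. Visual injury rated vs untreated controls after ~10 days in greenhouse, 0 (no effect) to 100 (complete control).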

[3] = tested on: ragweed (common ragweed, Ambrosia elatior); test: Test A preemergence, visual plant response rating; details: for Ragweed plant response rating: 125 g ai/ha, preemergence, 0 to 100 scale, 0 no effect, 100 complete control; for Ragweed plant response rating (0 to 100 scale): approx. 10 days
In short: as §1

[4] = tested on: pigweed (Amaranthus retroflexus); test: Test A preemergence, visual plant response rating; details: for Pigweed plant response rating: 125 g ai/ha, preemergence, 0 to 100 scale, 0 no effect, 100 complete control; for Pigweed plant response rating (0 to 100 scale): approx. 10 days
In short: as §1

[5] = tested on: kochia (Kochia scoparia); test: Test A preemergence, visual plant response rating; details: for Kochia plant response rating: 125 g ai/ha, preemergence, 0 to 100 scale, 0 no effect, 100 complete control; for Kochia plant response rating (0 to 100 scale): approx. 10 days
In short: as §1

[6] = tested on: barnyardgrass (Echinochloa crus-galli); test: Test A preemergence, visual plant response rating; details: for Barnyardgrass plant response rating: 125 g ai/ha, preemergence, 0 to 100 scale, 0 no effect, 100 complete control; for Barnyardgrass plant response rating (0 to 100 scale): approx. 10 days
In short: as §1

[7] = tested on: foxtail, giant (giant foxtail, Setaria faberii); test: Test A postemergence, visual plant response rating; details: for Foxtail, Giant plant response rating (0 to 100 scale): 500 g ai/ha, postemergence, 0 is no effect, 100 is complete control; for Foxtail, Giant plant response rating: Postemergence, 125 g ai/ha, 0 to 100 scale (0 no effect, 100 complete control)
In short: as §1

[8] = tested on: blackgrass (Alopecurus myosuroides); test: Test A postemergence, visual plant response rating; details: for Blackgrass plant response rating (0 to 100 scale): 500 g ai/ha, postemergence, 0 is no effect, 100 is complete control; for Blackgrass plant response rating: Postemergence, 125 g ai/ha, 0 to 100 scale (0 no effect, 100 complete control)
In short: as §1

[9] = tested on: corn (Zea mays); test: Test A postemergence, visual plant response rating; details: for Corn plant response rating (0 to 100 scale): 500 g ai/ha, postemergence, 0 is no effect, 100 is complete control; for Corn plant response rating: Postemergence, 125 g ai/ha, 0 to 100 scale (0 no effect, 100 complete control)
In short: as §1

[10] = tested on: Italian ryegrass (Lolium multiflorum); test: Test A postemergence, visual plant response rating; details: for Ryegrass, Italian plant response rating (0 to 100 scale): 500 g ai/ha, postemergence, 0 is no effect, 100 is complete control; for Ryegrass, Italian plant response rating: Postemergence, 125 g ai/ha, 0 to 100 scale (0 no effect, 100 complete control)
In short: as §1

[11] = tested on: ragweed (common ragweed, Ambrosia elatior); test: Test A postemergence, visual plant response rating; details: for Ragweed plant response rating (0 to 100 scale): 500 g ai/ha, postemergence, 0 is no effect, 100 is complete control; for Ragweed plant response rating: Postemergence, 125 g ai/ha, 0 to 100 scale (0 no effect, 100 complete control)
In short: as §1

[12] = tested on: pigweed (Amaranthus retroflexus); test: Test A postemergence, visual plant response rating; details: for Pigweed plant response rating (0 to 100 scale): 500 g ai/ha, postemergence, 0 is no effect, 100 is complete control; for Pigweed plant response rating: Postemergence, 125 g ai/ha, 0 to 100 scale (0 no effect, 100 complete control)
In short: as §1

[13] = tested on: galium (catchweed bedstraw, Galium aparine); test: Test A postemergence, visual plant response rating; details: for Galium plant response rating (0 to 100 scale): 500 g ai/ha, postemergence, 0 is no effect, 100 is complete control; for Galium plant response rating: Postemergence, 125 g ai/ha, 0 to 100 scale (0 no effect, 100 complete control)
In short: as §1

[14] = tested on: kochia (Kochia scoparia); test: Test A postemergence, visual plant response rating; details: for Kochia plant response rating (0 to 100 scale): 500 g ai/ha, postemergence, 0 is no effect, 100 is complete control; for Kochia plant response rating: Postemergence, 125 g ai/ha, 0 to 100 scale (0 no effect, 100 complete control)
In short: as §1

[15] = tested on: barnyardgrass (Echinochloa crus-galli); test: Test A postemergence, visual plant response rating; details: for Barnyardgrass plant response rating (0 to 100 scale): 500 g ai/ha, postemergence, 0 is no effect, 100 is complete control; for Barnyardgrass plant response rating: Postemergence, 125 g ai/ha, 0 to 100 scale (0 no effect, 100 complete control)
In short: as §1

[16] = tested on: wheat (Triticum aestivum); test: Test A postemergence, visual plant response rating; details: for Wheat plant response rating (0 to 100 scale): 500 g ai/ha, postemergence, 0 is no effect, 100 is complete control; for Wheat plant response rating: Postemergence, 125 g ai/ha, 0 to 100 scale (0 no effect, 100 complete control)
In short: as §1

[17] = tested on: ducksalad (Heteranhera limosa); test: Test B flooded paddy test, visual plant response rating; details: 250 g ai/ha, Flood, applied to paddy water, 2-leaf stage, evaluated after 13 to 15 days
In short: (§2)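 At the two-leaf stage, seedlings received compound applied to paddy water flooded 3 cm above soil, a level sustained until assessment. Greenhouse incubation lasted 13 to 15 days before visual comparison with control plants.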

[18] = tested on: rice (Oryza sativa); test: as above; details: 250 g ai/ha, Flood, applied to paddy water, 2-leaf stage, evaluated after 13 to 15 days
In short: as §2

[19] = tested on: sedge, umbrella (small-flower umbrella sedge, Cyperus difformis); test: as above; details: 250 g ai/ha, Flood, applied to paddy water, 2-leaf stage, evaluated after 13 to 15 days
In short: as §2

[20] = tested on: barnyardgrass (Echinochloa crus-galli); test: as above; details: 250 g ai/ha, Flood, applied to paddy water, 2-leaf stage, evaluated after 13 to 15 days
In short: as §2

C#CCO/N=C(/c1c(O)c(C)nn(C)c1=O)c1cc(Br)cc2ccccc12 [Compound 112, 4-[(E)-(3-bromo-1-naphthalenyl)[(2-propyn-1-yloxy)imino]methyl]-5-hydroxy-2,6-dimethyl-3(2H)-pyridazinone]
100: Foxtail, Giant plant response rating [1] | Foxtail, Giant plant response rating (0 to 100 scale) ([1]; 500 g ai/ha Preemergence) | Ryegrass, Italian plant response rating [2] | Ryegrass, Italian plant response rating (0 to 100 scale) ([2]; 500 g ai/ha Preemergence) | Pigweed plant response rating [4] | Pigweed plant response rating (0 to 100 scale) ([4]; 500 g ai/ha Preemergence) | Barnyardgrass plant response rating [6] | Barnyardgrass plant response rating (0 to 100 scale) ([6]; 500 g ai/ha Preemergence) | Blackgrass plant response rating (0 to 100 scale) [8] | Blackgrass plant response rating [8] | Ryegrass, Italian plant response rating (0 to 100 scale) [10] | Ragweed plant response rating (0 to 100 scale) [11] | Ragweed plant response rating [11] | Pigweed plant response rating (0 to 100 scale) [12] | Galium plant response rating (0 to 100 scale) [13] | Galium plant response rating [13]
90: Ragweed plant response rating [3] | Ragweed plant response rating (0 to 100 scale) ([3]; 500 g ai/ha Preemergence) | Foxtail, Giant plant response rating (0 to 100 scale) [7] | Foxtail, Giant plant response rating [7] | Corn plant response rating (0 to 100 scale) [9] | Ryegrass, Italian plant response rating [10] | Pigweed plant response rating [12] | Kochia plant response rating (0 to 100 scale) [14] | Barnyardgrass plant response rating (0 to 100 scale) [15]
20: Corn plant response rating [9]
80: Kochia plant response rating (0 to 100 scale) ([5]; 500 g ai/ha Preemergence) | Barnyardgrass plant response rating [15]
50: Kochia plant response rating [5] | Wheat plant response rating [16]
60: Plant response rating, Ducksalad (0 to 100 scale, 0 is no effect, 100 is complete control) [17] | Plant response rating, Sedge, Umbrella (0 to 100 scale, 0 is no effect, 100 is complete control) [19]
0: Plant response rating, Rice (0 to 100 scale, 0 is no effect, 100 is complete control) [18]
70: Kochia plant response rating [14] | Wheat plant response rating (0 to 100 scale) [16]
55: Plant response rating, Barnyardgrass (0 to 100 scale, 0 is no effect, 100 is complete control) [20]

CON=C(c1cccc(Cl)c1)c1c(O)c(C)nn(CC2CC2)c1=O (mixture of isomers) [Compound 4]
70: Barnyardgrass plant response rating (0 to 100 scale) ([6]; 500 g ai/ha Preemergence)
0: Foxtail, Giant plant response rating (0 to 100 scale) ([1]; 125 g ai/ha Preemergence) | Ryegrass, Italian plant response rating (0 to 100 scale) ([2]; 125 g ai/ha Preemergence) | Ragweed plant response rating (0 to 100 scale) ([3]; 125 g ai/ha Preemergence) | Ragweed plant response rating (0 to 100 scale) ([3]; 500 g ai/ha Preemergence) | Pigweed plant response rating (0 to 100 scale) ([4]; 125 g ai/ha Preemergence) | Pigweed plant response rating (0 to 100 scale) ([4]; 500 g ai/ha Preemergence) | Kochia plant response rating (0 to 100 scale) ([5]; 125 g ai/ha Preemergence) | Kochia plant response rating (0 to 100 scale) ([5]; 500 g ai/ha Preemergence) | Foxtail, Giant plant response rating (0 to 100 scale) [7] | Foxtail, Giant plant response rating [7] | Blackgrass plant response rating [8] | Corn plant response rating (0 to 100 scale) [9] | Corn plant response rating [9] | Ryegrass, Italian plant response rating (0 to 100 scale) [10] | Ryegrass, Italian plant response rating [10] | Ragweed plant response rating (0 to 100 scale) [11] | Ragweed plant response rating [11] | Pigweed plant response rating (0 to 100 scale) [12] | Pigweed plant response rating [12] | Galium plant response rating (0 to 100 scale) [13] | Galium plant response rating [13] | Kochia plant response rating (0 to 100 scale) [14] | Kochia plant response rating [14] | Barnyardgrass plant response rating (0 to 100 scale) [15] | Barnyardgrass plant response rating [15] | Wheat plant response rating (0 to 100 scale) [16] | Wheat plant response rating [16] | Plant response rating, Ducksalad (0 to 100 scale, 0 is no effect, 100 is complete control) [17] | Plant response rating, Rice (0 to 100 scale, 0 is no effect, 100 is complete control) [18] | Plant response rating, Sedge, Umbrella (0 to 100 scale, 0 is no effect, 100 is complete control) [19] | Plant response rating, Barnyardgrass (0 to 100 scale, 0 is no effect, 100 is complete control) [20]
20: Barnyardgrass plant response rating (0 to 100 scale) ([6]; 125 g ai/ha Preemergence)
40: Blackgrass plant response rating (0 to 100 scale) [8]
30: Ryegrass, Italian plant response rating (0 to 100 scale) ([2]; 500 g ai/ha Preemergence)
50: Foxtail, Giant plant response rating (0 to 100 scale) ([1]; 500 g ai/ha Preemergence)

CON=C(c1cccc(C#N)c1)c1c(O)c(C)nn(C)c1=O [Compound 57]
0: Foxtail, Giant plant response rating [1] | Ryegrass, Italian plant response rating [2] | Ryegrass, Italian plant response rating (0 to 100 scale) ([2]; 500 g ai/ha Preemergence) | Ragweed plant response rating [3] | Ragweed plant response rating (0 to 100 scale) ([3]; 500 g ai/ha Preemergence) | Pigweed plant response rating [4] | Pigweed plant response rating (0 to 100 scale) ([4]; 500 g ai/ha Preemergence) | Kochia plant response rating [5] | Barnyardgrass plant response rating [6] | Barnyardgrass plant response rating (0 to 100 scale) ([6]; 500 g ai/ha Preemergence) | Foxtail, Giant plant response rating (0 to 100 scale) [7] | Foxtail, Giant plant response rating [7] | Blackgrass plant response rating (0 to 100 scale) [8] | Blackgrass plant response rating [8] | Corn plant response rating (0 to 100 scale) [9] | Ragweed plant response rating [11] | Kochia plant response rating [14] | Barnyardgrass plant response rating (0 to 100 scale) [15] | Barnyardgrass plant response rating [15] | Wheat plant response rating [16] | Plant response rating, Ducksalad (0 to 100 scale, 0 is no effect, 100 is complete control) [17] | Plant response rating, Sedge, Umbrella (0 to 100 scale, 0 is no effect, 100 is complete control) [19]
50: Galium plant response rating (0 to 100 scale) [13] | Kochia plant response rating (0 to 100 scale) [14]
20: Corn plant response rating [9] | Ryegrass, Italian plant response rating (0 to 100 scale) [10]
30: Foxtail, Giant plant response rating (0 to 100 scale) ([1]; 500 g ai/ha Preemergence) | Pigweed plant response rating (0 to 100 scale) [12] | Pigweed plant response rating [12]
15: Plant response rating, Rice (0 to 100 scale, 0 is no effect, 100 is complete control) [18] | Plant response rating, Barnyardgrass (0 to 100 scale, 0 is no effect, 100 is complete control) [20]
10: Kochia plant response rating (0 to 100 scale) ([5]; 500 g ai/ha Preemergence) | Ryegrass, Italian plant response rating [10] | Ragweed plant response rating (0 to 100 scale) [11] | Galium plant response rating [13] | Wheat plant response rating (0 to 100 scale) [16]
